Experiments:
[1] = Area under curve value 24 hr after 2 mg/kg iv administration in monkeys; type: ADME, organism-based; design: time < 24 hr, dose 2 mg/kg, route intravenous; settings: cercopithecidae, in vivo
[2] = Area under curve value 24 hr after 2 mg/kg oral administration in monkeys; type: ADME, organism-based; design: time < 24 hr, dose 2 mg/kg, route oral; settings: cercopithecidae, in vivo
[3] = Bioavailability in monkey (dose 2 mg/kg); type: ADME, organism-based; settings: cercopithecidae, in vivo
[4] = Half-life 24 hr after 10 mg/kg iv administration in rats; type: ADME, organism-based; design: dose 10 mg/kg, route intravenous; settings: rat, in vivo
[5] = Cmax 24 hr after 2 mg/kg oral administration in monkeys; type: ADME, organism-based; design: dose 2 mg/kg, route oral; settings: cercopithecidae, in vivo
[6] = Bioavailability after administration of 10 mg/kg in rats; type: ADME, organism-based; settings: rat, in vivo, read-out: Bioavailabiility
[7] = tested on: Rattus norvegicus; assay: Area under curve value 24 hr after 10 mg/kg iv administration in rats; type: ADME, organism-based; design: time < 24 hr, dose 10 mg/kg, route intravenous; settings: in vivo
[8] = tested on: Rattus norvegicus; assay: Area under curve value 24 hr after 10 mg/kg oral administration in rats; type: ADME, organism-based; design: time < 24 hr, dose 10 mg/kg, route oral; settings: in vivo
[9] = tested on: Rattus norvegicus; assay: Area under curve value 6 hr after po administration in rat; type: ADME, organism-based; design: time < 6 hr, route oral; concentration or dose not given beside the values; settings: in vivo
[10] = Cmax 24 hr after 10 mg/kg oral administration in rats; type: ADME, organism-based; design: dose 10 mg/kg, route oral; settings: rat, in vivo
[11] = target: T1, Muscarinic acetylcholine receptor M1 (Homo sapiens, UniProt P11229); assay: Antagonistic activity against muscarinic M1 receptor; type: functional
T1 sequence (P11229 whole entry): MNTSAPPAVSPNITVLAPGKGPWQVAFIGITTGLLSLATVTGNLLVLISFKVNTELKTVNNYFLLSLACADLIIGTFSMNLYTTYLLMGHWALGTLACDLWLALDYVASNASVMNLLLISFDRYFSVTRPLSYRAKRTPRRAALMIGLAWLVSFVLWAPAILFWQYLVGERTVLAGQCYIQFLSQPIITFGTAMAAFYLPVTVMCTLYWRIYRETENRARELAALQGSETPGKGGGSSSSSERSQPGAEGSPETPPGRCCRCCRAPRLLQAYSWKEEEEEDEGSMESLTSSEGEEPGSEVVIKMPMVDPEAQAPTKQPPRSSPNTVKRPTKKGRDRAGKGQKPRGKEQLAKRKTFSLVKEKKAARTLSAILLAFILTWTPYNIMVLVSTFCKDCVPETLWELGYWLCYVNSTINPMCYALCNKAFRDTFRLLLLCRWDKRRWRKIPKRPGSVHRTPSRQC

[12] = target: T2, Muscarinic acetylcholine receptor M2 (Homo sapiens, UniProt P08172); assay: Antagonistic activity against Muscarinic acetylcholine receptor M2; type: functional
T2 sequence (P08172 whole entry): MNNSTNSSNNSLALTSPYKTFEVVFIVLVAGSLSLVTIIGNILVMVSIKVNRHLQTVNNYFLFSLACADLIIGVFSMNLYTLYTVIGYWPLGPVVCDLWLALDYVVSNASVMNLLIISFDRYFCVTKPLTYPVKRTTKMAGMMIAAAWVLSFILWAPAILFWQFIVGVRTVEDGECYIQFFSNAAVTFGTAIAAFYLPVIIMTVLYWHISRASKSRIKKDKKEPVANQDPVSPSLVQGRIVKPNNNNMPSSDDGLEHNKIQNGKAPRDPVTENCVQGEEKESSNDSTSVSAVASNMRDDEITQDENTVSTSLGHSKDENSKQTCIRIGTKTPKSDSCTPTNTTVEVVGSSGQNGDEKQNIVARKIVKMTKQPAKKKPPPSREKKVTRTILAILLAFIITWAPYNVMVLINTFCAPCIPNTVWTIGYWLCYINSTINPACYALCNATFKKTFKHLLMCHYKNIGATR

[13] = (§1) Compound was tested for the inhibition of HIV-1 301657 clinical isolate in PBMC cultures; type: functional; settings: Homo sapiens
[14] = (§2) Compound was tested for the inhibition of HIV-1 ADA-M clinical isolate in PBMC cultures; type: functional; settings: Homo sapiens
[15] = (§3) Compound was tested for the inhibition of HIV-1 JV1083 clinical isolate in PBMC cultures; type: functional; settings: Homo sapiens
[16] = (§4) Compound was tested for the inhibition of HIV-1 JrFL clinical isolate in PBMC cultures; type: functional; settings: Homo sapiens
[17] = (§5) Compound was tested for the inhibition of HIV-1 RU 570 clinical isolate in PBMC cultures; type: functional; settings: Homo sapiens
[18] = Compound was tested for inhibiting the entry of replication deffective HIV-1 (YU-2) in to […] cells; type: functional, cell-based; settings: Homo sapiens
[19] = Half-life 24 hr after 2 mg/kg iv administration in monkeys; type: ADME, organism-based; design: dose 2 mg/kg, route intravenous; settings: cercopithecidae, in vivo
[20] = Half-life 24 hr after 2 mg/kg iv administration in rats; type: ADME, organism-based; design: dose 2 mg/kg, route intravenous; settings: rat, in vivo
[21] = tested on: Rattus norvegicus; assay: Area under curve value 24 hr after 2 mg/kg iv administration in rats; type: ADME, organism-based; design: time < 24 hr, dose 2 mg/kg, route intravenous; settings: in vivo
[22] = tested on: Rattus norvegicus; assay: Area under curve value 24 hr after 2 mg/kg oral administration in rats; type: ADME, organism-based; design: time < 24 hr, dose 2 mg/kg, route oral; settings: in vivo
[23] = Cmax 24 hr after 2 mg/kg oral administration in rats; type: ADME, organism-based; design: dose 2 mg/kg, route oral; settings: rat, in vivo
[24] = target: C-C chemokine receptor type 5 (Homo sapiens, UniProt P51681); assay: Antagonistic activity against C-C chemokine receptor type 5; type: functional
C-C chemokine receptor type 5, sequence (P51681 whole entry): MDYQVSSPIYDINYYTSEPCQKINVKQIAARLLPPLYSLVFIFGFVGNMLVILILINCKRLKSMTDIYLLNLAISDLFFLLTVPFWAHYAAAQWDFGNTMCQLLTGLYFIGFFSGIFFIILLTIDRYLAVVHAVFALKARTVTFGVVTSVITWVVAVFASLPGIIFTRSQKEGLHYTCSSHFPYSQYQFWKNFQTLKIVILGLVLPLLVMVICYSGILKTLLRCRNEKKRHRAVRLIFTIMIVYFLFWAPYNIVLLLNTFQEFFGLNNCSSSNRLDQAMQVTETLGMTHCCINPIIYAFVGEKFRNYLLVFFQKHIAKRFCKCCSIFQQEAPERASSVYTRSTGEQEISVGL

[25] = target: Muscarinic acetylcholine receptor M3 (Homo sapiens, UniProt P20309); assay: Antagonistic activity against muscarinic M3 receptor; type: functional
Muscarinic acetylcholine receptor M3, sequence (P20309 whole entry): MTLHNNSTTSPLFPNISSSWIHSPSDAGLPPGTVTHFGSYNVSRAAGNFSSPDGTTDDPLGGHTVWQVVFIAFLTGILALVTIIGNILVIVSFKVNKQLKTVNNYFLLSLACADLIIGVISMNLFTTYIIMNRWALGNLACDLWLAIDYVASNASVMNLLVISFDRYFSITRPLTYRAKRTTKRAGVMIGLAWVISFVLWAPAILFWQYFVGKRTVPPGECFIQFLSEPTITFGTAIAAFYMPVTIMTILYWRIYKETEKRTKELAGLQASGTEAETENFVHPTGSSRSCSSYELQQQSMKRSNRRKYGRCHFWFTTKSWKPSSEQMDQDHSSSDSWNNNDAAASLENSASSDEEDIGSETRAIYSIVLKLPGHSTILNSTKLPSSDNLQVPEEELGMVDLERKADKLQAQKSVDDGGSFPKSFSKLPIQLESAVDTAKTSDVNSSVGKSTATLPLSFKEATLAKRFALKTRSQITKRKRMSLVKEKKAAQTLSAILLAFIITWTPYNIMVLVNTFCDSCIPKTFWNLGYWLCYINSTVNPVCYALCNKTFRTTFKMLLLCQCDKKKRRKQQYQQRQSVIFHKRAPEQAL

[26] = species: Homo sapiens; assay: as §1; type: functional
[27] = species: Homo sapiens; assay: as §2; type: functional
[28] = species: Homo sapiens; assay: as §3; type: functional
[29] = species: Homo sapiens; assay: as §4; type: functional
[30] = species: Homo sapiens; assay: as §5; type: functional
[31] = Bioavailability after administration of 2 mg/kg in rats; type: ADME, organism-based; settings: rat, in vivo, read-out: Bioavailabiility

| Compound | AUC 0-6h [9] [µg·h/mL] | Ki [11] [nM] | Ki [12] [nM] | IC90 [13] [nM] | IC90 [14] [nM] | IC90 [15] [nM] | IC90 [16] [nM] | IC90 [17] [nM] | IC50 [18] [nM] | Ki [24] [nM] | Ki [25] [nM] | also measured |
| --- | --- | --- | --- | --- | --- | --- | --- | --- | --- | --- | --- | --- |
| COC[C@@H](c1ccc(C(F)(F)F)cc1)N1CCN(C2(C)CCN(C(=O)c3c(C)ncnc3C)CC2)C[C@@H]1C [VICRIVIROC] | 6.9 | > 10000 | > 10000 | 1.8 | 2.8 | 4.9 | 3.3 | 10 | 0.46 | – | – | AUC 0-24h [1]: 2.24 µg·h/mL; AUC 0-24h [2]: 1.99 µg·h/mL; bioavailability [3]: 89%; half-life [4]: 8 h; Cmax [5]: 0.67 µg/mL; bioavailability [6]: 100%; AUC 0-24h [7]: 21 µg·h/mL; AUC 0-24h [8]: 21 µg·h/mL; Cmax [10]: 2.3 µg/mL; half-life [19]: 3.5 h |
| CCC[C@@H](c1ccc(C(F)(F)F)cc1)N1CCN(C2(C)CCN(C(=O)c3c(C)ncnc3C)CC2)C[C@@H]1C | 4.6 | 6070 | 4760 | – | – | – | – | – | 0.35 | 1.1 | > 5300 | AUC 0-24h [1]: 2.67 µg·h/mL; AUC 0-24h [2]: 1.76 µg·h/mL; bioavailability [3]: 66%; half-life [20]: 15.5 h; Cmax [5]: 0.24 µg/mL; AUC 0-24h [21]: 4.55 µg·h/mL; AUC 0-24h [22]: 3.27 µg·h/mL; Cmax [23]: 0.311 µg/mL; IC90 [26]: 0.09 nM; IC90 [27]: 0.03 nM; IC90 [28]: 0.27 nM; IC90 [29]: 0.01 nM; IC90 [30]: 0.43 nM; half-life [19]: 6.3 h; bioavailability [31]: 72% |
| Cc1ncnc(C)c1C(=O)N1CCC(C)(N2CCN([C@@H](CCC(F)(F)F)c3ccc(C(F)(F)F)cc3)[C@@H](C)C2)CC1 | 4.6 | > 3700 | > 6700 | – | – | – | – | – | 1.44 | – | – | – |
| CCO/N=C(\c1ccc(Br)cc1)C1CCN(C2(C)CCN(C(=O)c3c(C)cc[n+]([O-])c3C)CC2)CC1 [ANCRIVIROC] | – | – | – | 43 | 25 | 10 | 19 | 400 | – | – | – | – |
| Cc1ncnc(C)c1C(=O)N1CCC(C)(N2CCN([C@@H](CC3CC3)c3ccc(C(F)(F)F)cc3)[C@@H](C)C2)CC1 | 5.9 | 1890 | 3510 | – | – | – | – | – | 0.8 | 1.6 | – | – |
| Cc1ncnc(C)c1C(=O)N1CCC(C)(N2CCN([C@@H](Cc3ccccc3)c3ccc(C(F)(F)F)cc3)[C@@H](C)C2)CC1 | 2.03 | > 3900 | > 5700 | 0.6 | 0.04 | 0.25 | 0.19 | 4 | 0.13 | 1.4 | > 5300 | – |
| CC[C@@H](c1ccc(C(F)(F)F)cc1)N1CCN(C2(C)CCN(C(=O)c3c(C)ncnc3C)CC2)C[C@@H]1C | 7.31 | 3900 | 4750 | 16 | 21 | 18 | 19 | 1000 | 0.18 | 5.2 | 9090 | – |
| Cc1ncnc(C)c1C(=O)N1CCC(C)(N2CCN([C@@H](C)c3ccc(C(F)(F)F)cc3)[C@@H](C)C2)CC1 | 6.21 | 575 | – | 13 | 19 | 31 | 40 | > 1000 | 0.39 | – | 716 | – |
